Experiments:
Aurora-2 = target: T1, Aurora-2 (Homo sapiens, UniProt O14965); experiment: Inhibition assay of Aurora-2 activity (SPA technology); format: biochemical; conditions: SPA assay, 10 μM ATP, 60 minutes at room temperature; read-out: Aurora-2 inhibition IC50
T1 sequence (O14965 1-403): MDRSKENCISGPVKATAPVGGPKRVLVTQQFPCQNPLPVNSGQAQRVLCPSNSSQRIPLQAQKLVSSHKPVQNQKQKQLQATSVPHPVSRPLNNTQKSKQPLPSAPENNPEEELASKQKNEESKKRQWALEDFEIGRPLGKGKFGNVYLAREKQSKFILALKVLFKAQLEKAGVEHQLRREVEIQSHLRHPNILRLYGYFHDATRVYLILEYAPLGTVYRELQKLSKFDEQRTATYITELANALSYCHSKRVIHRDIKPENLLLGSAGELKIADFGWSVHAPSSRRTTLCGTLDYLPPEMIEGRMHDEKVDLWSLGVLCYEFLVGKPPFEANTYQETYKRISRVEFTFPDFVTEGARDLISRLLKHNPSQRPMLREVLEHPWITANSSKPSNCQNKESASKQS

[1] = test system: human colon cancer cell line HCT-116; experiment: In vitro cell proliferation assay; format: cell-based; conditions: HCT-116, 72 hours of treatment, cell count, read-out: Cell Antiproliferation IC50
Method: The compounds of the invention were further tested, in vitro, to assess the anti-proliferative effect onto cell cultures.
In Vitro Cell Proliferation Assay
The human colon cancer cell line HCT-116 was seeded at 5000 cells/cm2 in 24 wells plate (Costar) using F12 medium (Gibco) supplemented with 10% FCS (EuroClone, Italy) 2 mM L-glutamine and 1% penicillin/streptomycin and maintained at 37° C., 5% CO2 and 96% relative humidity. The following day, plates were treated in duplicates with 5 ul of an appropriate dilution of compounds starting from a 10 mM stock in DMSO. Two untreated control wells were included in each plate. After 72 hours of treatment, medium was withdrawn and cells detached from each well using 0.5 mL of 0.05% (w/v) Trypsin, 0.02% (w/v) EDTA (Gibco). Samples were diluted with 9.5 mL of Isoton (Coulter) and counted using a Multisizer 3 cell counter (Beckman Coulter). Data were evaluated as percent of the control wells: % of CTR=(Treated−Blank)/(Control−Blank).
IC50 values were calculated by LSW/Data Analysis using Microsoft Excel sigmoidal curve fitting.

IC50 (Aurora-2): 18 nM
IC50 [1]: 184 nM
Structure (SMILES): O=C(Nc1n[nH]c2sc(C(=O)NCc3ccccc3)cc12)c1ccc(N2CCOCC2)cc1 [Reference compound, N-benzyl-3-[(4-morpholin-4-ylbenzoyl)amino]-1H-thieno[2,3-c]pyrazole-5-carboxamide, reference compound]

— patent publication US8481584B2, “1H-thieno[2,3-c]pyrazole derivatives useful as kinase inhibitors” (Nerviano Medical Sciences S.R.L., priority 2004, dated 2013)
